The values below come from US11485742B2, “2-azaspiro[3.4]octane derivatives as M4 agonists” (NOVARTIS AG, priority 2019, dated 2022).

In assay [1] the target is T1, Cloned human M1 receptor (CHRM1) (Homo sapiens, UniProt P11229).
T1 construct: expressed in transfected cells; host or cells: HEK293
T1 sequence (P11229 1-460): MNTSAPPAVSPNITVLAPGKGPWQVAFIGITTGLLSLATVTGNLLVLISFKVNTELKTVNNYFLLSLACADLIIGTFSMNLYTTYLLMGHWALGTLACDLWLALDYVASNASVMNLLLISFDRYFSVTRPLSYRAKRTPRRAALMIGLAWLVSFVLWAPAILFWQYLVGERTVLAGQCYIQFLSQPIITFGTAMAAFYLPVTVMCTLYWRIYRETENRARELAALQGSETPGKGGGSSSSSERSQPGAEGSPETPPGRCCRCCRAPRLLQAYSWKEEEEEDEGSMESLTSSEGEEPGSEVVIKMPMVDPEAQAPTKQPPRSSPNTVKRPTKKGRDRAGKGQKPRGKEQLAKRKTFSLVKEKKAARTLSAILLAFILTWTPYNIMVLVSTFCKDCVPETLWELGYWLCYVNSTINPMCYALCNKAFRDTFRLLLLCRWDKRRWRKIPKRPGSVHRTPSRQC
The assay is described as follows: CHRM1 Ca++ Flux Assay (HEK293 M1 cells, agonist mode). It counts as cell-based. Particulars: for M1 FDSS PA % / Emax: Percent Activity (PA); for EC50: geometric mean if tested more than once, read-out: M1 FDSS EC50; for Emax: read-out: M1 FDSS PA %. In a few lines:
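HEK293 cells stably expressing human M1 were loaded with Ca++ dye, then given compounds (11-point dose, triplicate) in HBSS −Ca/−Mg, 20 mM HEPES. Ca++ flux was read over 3 min (agonist mode). Four-parameter curves were fitted, with activity as percent of carbachol EC100.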

The target in assay [2] is T2, human cloned CHRM5 receptor (Homo sapiens, UniProt P08912).
T2 construct: expressed in transfected cells; host or cells: CHO (M5_CHO)
T2 sequence (P08912 1-532): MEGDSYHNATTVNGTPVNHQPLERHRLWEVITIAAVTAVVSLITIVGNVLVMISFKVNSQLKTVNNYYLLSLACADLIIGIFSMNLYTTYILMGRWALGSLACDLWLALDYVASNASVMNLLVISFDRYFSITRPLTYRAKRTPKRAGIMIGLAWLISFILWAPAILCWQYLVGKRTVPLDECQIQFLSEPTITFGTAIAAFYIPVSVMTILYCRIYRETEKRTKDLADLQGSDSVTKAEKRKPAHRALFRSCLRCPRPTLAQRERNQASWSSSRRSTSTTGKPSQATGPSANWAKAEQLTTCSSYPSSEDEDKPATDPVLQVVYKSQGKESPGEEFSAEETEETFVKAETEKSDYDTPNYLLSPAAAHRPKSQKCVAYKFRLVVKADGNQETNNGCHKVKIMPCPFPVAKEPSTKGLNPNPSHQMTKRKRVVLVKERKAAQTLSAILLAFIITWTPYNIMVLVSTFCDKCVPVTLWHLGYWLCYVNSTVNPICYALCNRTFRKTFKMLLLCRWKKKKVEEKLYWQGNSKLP
Description: CHRM5 Ca++ Flux Assay (M5_CHO cells, agonist mode). Format: cell-based. The conditions noted are these: for M5 FDSS PA % / Emax: Percent Activity (PA) measured to EC100 of Carbachol; for EC50: agonist mode, geometric mean if tested more than once, read-out: M5 FDSS EC50; for Emax: read-out: M5 FDSS PA %. In a few lines:
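CHO-K1 cells stably expressing human M3 or M5 receptor, dye-loaded ≥1 h, treated with 11-point compound doses in triplicate; Ca++ flux read over 3 min (FDSS). Agonist-mode four-parameter fit; percent activity relative to carbachol EC100; repeat tests reported as geometric mean.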

Each structure is given as a SMILES string.

Turning to `O[C@H]1CC[C@@H](c2ccc(F)cc2C2CCN([C@@H]3COC4(C3)CN(c3nnco3)C4)CC2)CC1` (single isomer, unassigned) [Example 3H, (1R,4s)-4-(2-(1-((S)-2-(1,3,4-oxadiazol-2-yl)-5-oxa-2-azaspiro[3.4]octan-7-yl)piperidin-4-yl)-4-fluorophenyl)cyclohexan-1-ol or (1S,4r)-4-(2-(1-((S)-2-(1,3,4-oxadiazol-2-yl)-5-oxa-2-azaspiro[3.4]octan-7-yl)piperidin-4-yl)-4-fluorophenyl)cyclohexan-1-ol], in assay [1], the “M1 FDSS PA %” value is reported as 84% and the 50% effective concentration (EC50) turned out to be 2.41 µM. For the same molecule, in assay [2], the “M5 FDSS PA %” value is 0% and the EC50 is above 25 µM.
As to `Fc1ccc(OC2CCOCC2)c(C2CCN([C@@H]3COC4(C3)CN(c3ncco3)C4)CC2)c1` [Example 4E, (S)-7-(4-(5-fluoro-2-((tetrahydro-2H-pyran-4-yl)oxy)phenyl)piperidin-1-yl)-2-(oxazol-2-yl)-5-oxa-2-azaspiro[3.4]octane], in assay [1], the Emax worked out at 75% and the 50% effective concentration (EC50) was determined as 0.979 µM. For the same molecule, in assay [2], the Emax is 0% and the EC50 is above 25 µM.
On to `Fc1ccc(OC[C@@H]2COCCO2)c(C2CCN([C@@H]3COC4(C3)CN(c3nnco3)C4)CC2)c1` [Example 1F, (S)-7-(4-(2-(((S)-1,4-dioxan-2-yl)methoxy)-5-fluorophenyl)piperidin-1-yl)-2-(1,3,4-oxadiazol-2-yl)-5-oxa-2-azaspiro[3.4]octane], for which the Emax in assay [1] was determined as 83%; in assay [2] it was 0%. In addition, the EC50 in assay [1] was 0.368 µM; in assay [2] it was above 25 µM.
Taken in the same sequence, the figures for `CC(C)(O)COc1ccc(F)cc1C1CCN([C@@H]2COC3(C2)CN(c2nncs2)C3)CC1` [Example 5U, (S)-1-(2-(1-(2-(1,3,4-thiadiazol-2-yl)-5-oxa-2-azaspiro[3.4]octan-7-yl)piperidin-4-yl)-4-fluorophenoxy)-2-methylpropan-2-ol] were 75%, 0%, 2.44 µM and above 25 µM.
As to `OC[C@H]1C[C@H](Oc2ccc(F)cc2C2CCN([C@@H]3COC4(C3)CN(c3nnco3)C4)CC2)C1` (single isomer, unassigned) [Example 2HH, ((1S,3r)-3-(2-(1-((S)-2-(1,3,4-oxadiazol-2-yl)-5-oxa-2-azaspiro[3.4]octan-7-yl)piperidin-4-yl)-4-fluorophenoxy)cyclobutyl)methanol or ((1R,3s)-3-(2-(1-((S)-2-(1,3,4-oxadiazol-2-yl)-5-oxa-2-azaspiro[3.4]octan-7-yl)piperidin-4-yl)-4-fluorophenoxy)cyclobutyl)methanol], in assay [1], the “M1 FDSS PA %” value is 96% and the EC50 worked out at 2.57 µM. For the same molecule, in assay [2], the “M5 FDSS PA %” value is on record as 0% and the EC50 is above 25 µM.
Turning to `Fc1ccc(OC2CCOCC2)c(C2CCN([C@@H]3COC4(C3)CN(c3nnco3)C4)CC2)c1` [Example 1G, (S)-7-(4-(5-fluoro-2-((tetrahydro-2H-pyran-4-yl)oxy)phenyl)piperidin-1-yl)-2-(1,3,4-oxadiazol-2-yl)-5-oxa-2-azaspiro[3.4]octane], in assay [1], the Emax stood at 77% and the EC50 is 0.973 µM. In assay [2], the Emax was found to be 0% and the EC50 is above 25 µM.
Turning to `Fc1ccc(OCC2C3COCC32)c(C2CCN([C@@H]3COC4(C3)CN(c3nnco3)C4)CC2)c1` (stereo partly drawn) [Example 2Z, (7S)-7-(4-(2-((3-oxabicyclo[3.1.0]hexan-6-yl)methoxy)-5-fluorophenyl)piperidin-1-yl)-2-(1,3,4-oxadiazol-2-yl)-5-oxa-2-azaspiro[3.4]octane], the Emax in assay [1] came out at 11%; in assay [2], 0%. In addition, the half-maximal effective concentration (EC50) in assay [1] was 5.06 µM; in assay [2] it was above 25 µM.
`COCCOc1ccc(F)cc1C1CCN([C@@H]2COC3(C2)CN(c2nncs2)C3)CC1` [Example 5S, (S)-7-(4-(5-fluoro-2-(2-methoxyethoxy)phenyl)piperidin-1-yl)-2-(1,3,4-thiadiazol-2-yl)-5-oxa-2-azaspiro[3.4]octane]: the Emax in assay [1] came out at 87%; in assay [2] it was 0%. Besides, the half-maximal effective concentration (EC50) in assay [1] was 0.761 µM; in assay [2], above 25 µM.
For the molecule `Fc1cc(F)c(OC2CC3(COC3)C2)c(C2CCN([C@@H]3COC4(C3)CN(c3nnco3)C4)CC2)c1` [Example 2AA, (S)-7-(4-(2-((2-oxaspiro[3.3]heptan-6-yl)oxy)-3,5-difluorophenyl)piperidin-1-yl)-2-(1,3,4-oxadiazol-2-yl)-5-oxa-2-azaspiro[3.4]octane], in assay [1], the Emax stood at 30% and the EC50 is 6.66 µM. Also, in assay [2], the Emax was 0% and the 50% effective concentration (EC50) is above 25 µM.
In the case of `Fc1cc(F)c(OCC2COC2)c(C2CCN([C@@H]3COC4(C3)CN(c3nnco3)C4)CC2)c1` [Example 2DD, (S)-7-(4-(3,5-difluoro-2-(oxetan-3-ylmethoxy)phenyl)piperidin-1-yl)-2-(1,3,4-oxadiazol-2-yl)-5-oxa-2-azaspiro[3.4]octane], the Emax in assay [1] worked out at 67%; in assay [2], 0%. Also, the figures for the EC50 in assay [1] and in assay [2] were 1.12 µM and above 25 µM, respectively.
Taken in the same sequence, the figures for `Fc1cc(F)c(OC2CCOCC2)c(C2CCN([C@@H]3COC4(C3)CN(c3nnco3)C4)CC2)c1` [Example 2BB, (S)-7-(4-(3,5-difluoro-2-((tetrahydro-2H-pyran-4-yl)oxy)phenyl)piperidin-1-yl)-2-(1,3,4-oxadiazol-2-yl)-5-oxa-2-azaspiro[3.4]octane] were 65%, 0%, 7 µM and above 25 µM.
Consider `CC(C)(O)[C@H]1C[C@@H](Oc2ccc(F)cc2C2CCN([C@@H]3COC4(C3)CN(c3ncco3)C4)CC2)C1` (single isomer, unassigned) [Example 4U, 2-((1R,3s)-3-(4-fluoro-2-(1-((S)-2-(oxazol-2-yl)-5-oxa-2-azaspiro[3.4]octan-7-yl)piperidin-4-yl)phenoxy)cyclobutyl)propan-2-ol or 2-((1S,3r)-3-(4-fluoro-2-(1-((S)-2-(oxazol-2-yl)-5-oxa-2-azaspiro[3.4]octan-7-yl)piperidin-4-yl)phenoxy)cyclobutyl)propan-2-ol], for which, in assay [1], the “M1 FDSS PA %” value was 55% and the EC50 amounted to 2.24 µM. In assay [2], the “M5 FDSS PA %” value turned out to be 0% and the concentration giving a half-maximal response (EC50) was above 25 µM.
Turning to `CC(C)(O)[C@H]1C[C@H](Oc2ccc(F)cc2C2CCN([C@@H]3COC4(C3)CN(c3nnco3)C4)CC2)C1` (single isomer, unassigned) [Example 2W, 2-((1S,3r)-3-(2-(1-((S)-2-(1,3,4-oxadiazol-2-yl)-5-oxa-2-azaspiro[3.4]octan-7-yl)piperidin-4-yl)-4-fluorophenoxy)cyclobutyl)propan-2-ol or 2-((1R,3s)-3-(2-(1-((S)-2-(1,3,4-oxadiazol-2-yl)-5-oxa-2-azaspiro[3.4]octan-7-yl)piperidin-4-yl)-4-fluorophenoxy)cyclobutyl)propan-2-ol], in assay [1], the “M1 FDSS PA %” value came out at 66% and the EC50 is 3.44 µM. In addition, in assay [2], the “M5 FDSS PA %” value worked out at 0% and the EC50 is above 25 µM.
In the case of `COCCOc1ccc(F)cc1C1CCN([C@@H]2COC3(C2)CN(c2ncco2)C3)CC1` [Example 4L, (S)-7-(4-(5-fluoro-2-(2-methoxyethoxy)phenyl)piperidin-1-yl)-2-(oxazol-2-yl)-5-oxa-2-azaspiro[3.4]octane], the results for the Emax in assay [1] and in assay [2] were 66% and 0%, respectively. For the same molecule, the results for the EC50 in assay [1] and in assay [2] were 0.336 µM and above 25 µM, respectively.

As usually defined, the EC50 is the concentration needed to bring the measured effect to its halfway point.
